This is an account of results in patent publication US20230058733A1, “OGA INHIBITOR COMPOUNDS” (JANSSEN PHARMACEUTICA NV, priority 2019, published 2023).

The target of one assay is T1, hOGA (Homo sapiens, UniProt O60502).
T1 construct: HEK293 cells inducible for P301L mutant human Tau (isoform 2N4R) were established at Janssen; endogenous in cells; host or cells: HEK293 cells inducible for P301L mutant human Tau (2N4R)
T1 sequence (O60502 1-916): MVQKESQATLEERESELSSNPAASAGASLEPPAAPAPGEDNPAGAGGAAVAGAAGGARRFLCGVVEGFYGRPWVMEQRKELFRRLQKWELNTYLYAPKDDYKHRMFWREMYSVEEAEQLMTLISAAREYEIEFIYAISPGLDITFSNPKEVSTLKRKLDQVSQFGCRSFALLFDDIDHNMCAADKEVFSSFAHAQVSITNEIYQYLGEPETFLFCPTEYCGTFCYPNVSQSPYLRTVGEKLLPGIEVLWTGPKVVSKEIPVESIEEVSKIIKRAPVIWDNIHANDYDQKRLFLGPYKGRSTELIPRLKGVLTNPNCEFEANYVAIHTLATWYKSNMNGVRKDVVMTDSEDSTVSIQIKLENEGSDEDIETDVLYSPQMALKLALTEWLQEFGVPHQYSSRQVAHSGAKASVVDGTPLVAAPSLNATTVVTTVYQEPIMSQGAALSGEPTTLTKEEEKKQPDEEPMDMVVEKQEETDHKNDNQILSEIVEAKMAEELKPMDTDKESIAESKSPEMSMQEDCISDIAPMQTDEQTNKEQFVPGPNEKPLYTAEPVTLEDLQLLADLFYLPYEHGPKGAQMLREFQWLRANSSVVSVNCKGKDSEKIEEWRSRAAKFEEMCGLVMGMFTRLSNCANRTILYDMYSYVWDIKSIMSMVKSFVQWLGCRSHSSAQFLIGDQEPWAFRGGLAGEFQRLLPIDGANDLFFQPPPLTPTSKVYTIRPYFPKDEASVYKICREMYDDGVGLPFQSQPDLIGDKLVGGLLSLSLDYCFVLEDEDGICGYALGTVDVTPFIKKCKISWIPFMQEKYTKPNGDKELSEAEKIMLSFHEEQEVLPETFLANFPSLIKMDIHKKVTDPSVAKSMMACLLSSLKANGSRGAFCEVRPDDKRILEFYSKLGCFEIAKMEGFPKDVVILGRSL
The experiment in a line: OGA cellular assay (ICC detection of O-GlcNAcylated proteins in HEK293 cells inducible for P301L mutant human Tau). The format is cell-based. The settings on record: for EC50: HEK293 cells inducible for P301L mutant human Tau (2N4R), 6 hours incubation, O-GlcNAcylation readout at 488 nm, read-out: Cellular hOGA, pEC50 (converted); for Emax: HEK293 cells inducible for P301L mutant human Tau, maximum defined by Thiamet G at 200 uM. The method, then:
HEK293 cells inducible for P301L mutant human Tau (isoform 2N4R) were established at Janssen. Thiamet-G was used for both plate validation (high control) and as reference compound (reference EC50 assay validation). OGA inhibition is evaluated through the immunocytochemical (ICC) detection of O-GlcNAcylated proteins by the use of a monoclonal antibody (CTD110.6; Cell Signaling, #9875) detecting 0-GlcNAcylated residues as previously described (Dorfmueller et al. 2010 Chemistry & biology, 17:1250). Inhibition of OGA will result in an increase of O-GlcNAcylated protein levels resulting in an increased signal in the experiment. Cell nuclei are stained with Hoechst to give a cell culture quality control and a rough estimate of immediate compounds toxicity, if any. ICC pictures are imaged with a Perkin Elmer Opera Phenix plate microscope and quantified with the provided software Perkin Elmer Harmony 4.1.
Cells were propagated in DMEM high Glucose (Sigma, #D5796) following standard procedures. 2 days before the cell assay cells are split, counted and seeded in Poly-D-Lysine (PDL) coated 96-wells (Greiner, #655946) plate at a cell density of 12,000 cells per cm^2 (4,000 cells per well) in 100 μl of Assay Medium (Low Glucose medium is used to reduce basal levels of GlcNAcylation) (Park et al. 2014 The Journal of biological chemistry 289:13519). At the day of compound test medium from assay plates was removed and replenished with 90[d of fresh Assay Medium. 10 μl of compounds at a 10 fold final concentration were added to the wells. Plates were centrifuged shortly before incubation in the cell incubator for 6 hours. DMSO concentration was set to 0.2%. Medium is discarded by applying vacuum. For staining of cells medium was removed and cells washed once with 100 μl D-PBS (Sigma, #D8537). From next step onwards unless other stated assay volume was always 50 μl and incubation was performed without agitation and at room temperature. Cells were fixed in 50 μl of a 4% paraformaldehyde (PFA, Alpha aesar, #043368) PBS solution for 15 minutes at room temperature. […] Before analysis samples were washed 2 times manually for 5 minutes in ICC base buffer.
Imaging is performed using Perkin Elmer Phenix Opera using a water 20× objective and recording 9 fields per well. Intensity readout at 488 nm is used as a measure of O-GlcNAcylation level of total proteins in wells. To assess potential toxicity of compounds nuclei were counted using the Hoechst staining. IC50-values are calculated using parametric non-linear regression model fitting. As a maximum inhibition Thiamet G at a 200 uM concentration is present on each plate. In addition, a concentration response of Thiamet G is calculated on each plate.

The target in assay [1] is T2, recombinant human Meningioma Expressed Antigen 5 (MGEA5), also referred to as O-GlcNAcase (OGA) (Homo sapiens, UniProt O60502).
T2 construct: Full length OGA enzyme was purchased at OriGene (cat #TP322411); purchased OriGene TP322411
T2 sequence (O60502 1-916): T1 sequence (O60502 1-916)
The experiment in a line: OGA biochemical assay (inhibition of FM-GlcNAc hydrolysis, fluorescence). The settings on record: full length OGA 2 nM, FM-GlcNAc 100 uM; for IC50: pH 7.2, 6 h at room temperature, read-out: Enzymatic hOGA, pIC50 (converted); for Emax: relative to high and low controls, read-out: Enzymatic Emax (%). The text has this: The assay is based on the inhibition of the hydrolysis of fluorescein mono-β-D-N-Acetyl-Glucosamine (FM-GlcNAc) (Mariappa et al. 2015, Biochem J 470:255) by the recombinant human Meningioma Expressed Antigen 5 (MGEA5), also referred to as O-GlcNAcase (OGA). The hydrolysis FM-GlcNAc (Marker Gene technologies, cat #M1485) results in the formation of […] and fluorescein. The fluorescence of the latter can be measured at excitation wavelength 485 nm and emission wavelength 538 nm. An increase in enzyme activity results in an increase in fluorescence signal. Full length OGA enzyme was purchased at OriGene (cat #TP322411). The enzyme was stored in 25 mM Tris.HCl, pH 7.3, 100 mM glycine, 10% glycerol at −20° C. Thiamet G and GlcNAcStatin were tested as reference compounds (Yuzwa et al. 2008 Nature Chemical Biology 4:483; Yuzwa et al. 2012 Nature Chemical Biology 8:393). The assay was performed in 200 mM Citrate/phosphate buffer supplemented with 0.005% Tween-20. 35.6 g Na2HPO4 2 H2O (Sigma, #C0759) were dissolved in 1 L water to obtain a 200 mM solution. 19.2 g citric acid (Merck, #1.06580) was dissolved in 1 L water to obtain a 100 mM solution. pH of the sodiumphosphate solution was adjusted with the citric acid solution to 7.2. The buffer to stop the reaction consists of a 500 mM Carbonate buffer, pH 11.0. 734 mg FM-GlcNAc were dissolved in 5.48 mL DMSO to obtain a 250 mM solution and was stored at −20° C. OGA was used at a 2 nM concentration and FM-GlcNAc at a 100 uM final concentration. Dilutions were prepared in assay buffer.
50 nl of a compound dissolved in DMSO was dispensed on Black Proxiplate TM 384 Plus Assay plates (Perkin Elmer, #6008269) and 3 μl fl-OGA enzyme mix added subsequently. Plates were pre-incubated for 60 min at room temperature and then 2 μl FM-GlcNAc substrate mix added. […] Plates were briefly centrifuged for 1 min at 1000 rpm and incubate at room temperature for 6 h. To stop the reaction 5 μl STOP buffer were added and plates centrifuge again 1 min at 1000 rpm. Fluorescence was quantified in the Thermo Scientific Fluoroskan Ascent or the PerkinElmer EnVision with excitation wavelength 485 nm and emission wavelength 538 nm.
For analysis a best-fit curve is fitted by a minimum sum of squares method. From this an IC50 value and Hill coefficient was obtained. High control (no inhibitor) and low control (saturating concentrations of standard inhibitor) were used to define the minimum and maximum values.

For `Cc1cc(C(F)(F)F)cc(C)c1Nc1nncc2c1ccn2CC(=O)N(C)C` [Co. No. 1], at hOGA, the EC50 was 24 nM and the Emax was 68%. In assay [1], the IC50 was 15.1 nM and the Emax was found to be 101%.
Turning to `Cc1ccnc(C(C)C)c1Nc1nncc2c1ccn2CC(=O)N(C)C` [Co. No. 2], at hOGA, the EC50 is 138 nM and the Emax turned out to be 138%. In assay [1], the IC50 is 21.4 nM and the Emax is 98%.
Taken in the same sequence, the figures for `Cc1cc(OC(F)(F)F)cc(Cl)c1Nc1nncc2c1ccn2CC(=O)N(C)C` [Co. No. 3] were 15.8 nM, 108%, 6.31 nM and 101%.
For the compound `Cc1cc(Cl)cc(C(F)(F)F)c1Nc1nncc2c1ccn2CC(=O)N(C)C` [Co. No. 4], at hOGA, the EC50 was 74.1 nM and the Emax was determined as 63%. In assay [1], the IC50 is 19.1 nM and the Emax came out at 100%.
On to `Cc1cc(C)c(Nc2nncc3c2ccn3CC(=O)N(C)C)c(C)c1` [Co. No. 5], for which, on hOGA, the EC50 is 21.4 nM and the Emax was found to be 92%. Further, in assay [1], the IC50 is 4.27 nM and the Emax was 99%.

What is called Emax is the size of the effect at its maximum, as opposed to the concentration needed.
